Experimental data as given in ChEMBL document CHEMBL6092203, “Discovery of Novel PROTAC-Based HPK1 Degraders with High Potency and Selectivity for Cancer Immunotherapy” (J Med Chem, 2024).
The source made the active and inactive calls. The rule behind the calls is not given here.

What was measured:
[1] = target: Cytochrome P450 2D6 (Homo sapiens, UniProt P10635); experiment: Inhibition of CYP2D6 in human liver microsomes using dextromethorphan as substrate in presence of NADPH; format: ADME, Microsome
[2] = tested on: MC-38; experiment: Antitumor activity against mouse MC38 cells implanted in C57BL/6J mouse assessed as tumor weight inhibition rate at 100 mg/kg, po QD administered for 4 weeks; format: functional; set-up: scale not given: the % may be the effect or the level left
[3] = tested on: MC-38; experiment: Antitumor activity against mouse MC38 cells implanted in C57BL/6J mouse assessed as tumor growth inhibition at 0.5 mg/kg, po BID measured after 4 weeks; format: functional; conditions: MC-38, 672 h, read-out: TGI
[4] = target: Cytochrome P450 3A4 (Homo sapiens, UniProt P08684); experiment: Inhibition of CYP3A4 in human liver microsomes using testosterone as substrate in presence of NADPH; format: ADME, Microsome
[5] = tested on: MC-38; experiment: Synergistic antitumor activity against mouse MC38 cells implanted in C57BL/6J mouse assessed as reduction in tumor weight at 100 mg/kg, po QD administered for 3 to 4 weeks in presence of 5 mg/kg anti-PD1 and measured twice a week (reference value: 1.79 +/- 0.24 g); format: functional; conditions: time 3-4 weeks
[6] = in vivo; conditions: male, Sprague-Dawley, rat, po, 2 mg/kg
[7] = tested on: Jurkat; experiment: Effect on p-SLP76 at Y145 residue protein expression in human Jurkat cells at 1 to 2000 nM incubated for 24 hrs by Western blotting analysis; format: functional, cell-based; conditions: dose 1-2000 nM
[8] = Tmax in male Sprague-Dawley rat at 30 mg/kg/day, po measured at day 1; format: ADME, organism-based; conditions: in vivo, time 1 day
[9] = tested on: MC-38; experiment: Antitumor activity against mouse MC38 cells implanted in C57BL/6J mouse assessed as reduction in tumor weight at 1 mg/kg, po BID administered for 3 to 4 weeks (reference value: 1.79 +/- 0.24 g); format: functional; conditions: time 3-4 weeks
[10] = tested on: Jurkat; experiment: Induction of GCK degradation in human Jurkat cells at 1 to 1000 nM incubated for 24 hrs by Western blotting analysis; format: cell-based; conditions: dose 1-1000 nM
[11] = Metabolic stability in monkey liver microsomes assessed as intrinsic clearance at 1 uM incubated for 45 mins by LC-MS/MS method; format: ADME, Macaca mulatta, Microsome; conditions: rhesus monkey, read-out: CLH
[12] = target: T1, Protein cereblon/Mitogen-activated protein kinase kinase kinase kinase 1 (Homo sapiens, UniProt Q92918+Q96SW2); experiment: PROTAC activity at CRBN/HPK1 in human Jurkat cells assessed as HPK1 degradation at 0.01 uM pretreated with MG132 for 4 hrs followed by compound addition and measured after 24 hrs by Western blotting analysis; format: cell-based
[13] = Drug metabolism in dog hepatocytes assessed as phase 2 metabolites formation at 10 uM incubated for 120 mins by UHPLC-UV/MS/MS method; format: ADME, cell-based, Canis lupus familiaris, Hepatocyte; conditions: 2 h
[14] = Half-life in C57BL/6J mouse at 2 mg/kg, iv measured upto 24 hrs by LC-MS analysis; conditions: in vivo
[15] = Drug distribution in rat brain measured after 2 hrs; format: ADME, tissue-based; conditions: in vivo
[16] = tested on: MC-38; experiment: Antitumor activity against mouse MC38 cells implanted in C57BL/6J mouse assessed as tumor weight inhibition rate at 1 mg/kg, po BID measured after 4 weeks; format: functional; set-up: scale not given: the % may be the effect or the level left
[17] = in vivo; conditions: beagle, dog, po, 5 mg/kg
Description: Oral bioavailability in Beagle dog at 5 mg/kg measured upto 24 hrs by LC-MS analysis

[18] = AUC(0 to 24 hrs) in female Sprague-Dawley rat at 2 mg/kg/day, po measured at day 1; format: ADME, organism-based; conditions: in vivo, time 1 day
[19] = in vivo; conditions: female, Sprague-Dawley, rat, po, 2 mg/kg
[20] = in vivo; conditions: female, Sprague-Dawley, rat, po, 30 mg/kg
[21] = Drug metabolism in dog hepatocytes assessed as phase 1 metabolites formation at 10 uM incubated for 120 mins by UHPLC-UV/MS/MS method; format: ADME, cell-based, Canis lupus familiaris, Hepatocyte; conditions: 2 h
[22] = AUCinfinity in C57BL/6J mouse at 10 mg/kg, po measured upto 24 hrs by LC-MS analysis; format: ADME, organism-based; conditions: in vivo
[23] = tested on: MC-38; experiment: Antitumor activity against mouse MC38 cells implanted in C57BL/6J mouse assessed as tumor growth inhibition at 0.1 mg/kg, po BID measured after 4 weeks; format: functional; conditions: MC-38, 672 h, read-out: TGI
[24] = in vitro; conditions: dog, liver microsomes
[25] = Toxicity in C57BL/6J mouse assessed as body weight loss at 0.02 to 0.5 mg/kg, po qd administered for 3 to 4 weeks; format: organism-based; conditions: in vivo, dose lower 0.02 mg/kg, time lower 3 weeks, dose upper 0.5 mg/kg, time upper 4 weeks
[26] = Effect on action potential in rabbit purkinje fibers; format: toxicity, tissue-based, Oryctolagus cuniculus, Purkinje fiber
[27] = AUCinfinity in C57BL/6J mouse at 2 mg/kg, iv measured upto 24 hrs by LC-MS analysis; format: ADME, organism-based; conditions: in vivo
[28] = Initial plasma concentration in Sprague-Dawley rat at 2 mg/kg, iv measured upto 24 hrs by LC-MS analysis; format: ADME, organism-based
[29] = Tmax in female Sprague-Dawley rat at 2 mg/kg/day, po measured at day 14; format: ADME, organism-based; conditions: in vivo, time 14 day
[30] = in vitro; conditions: mouse, hepatocytes
[31] = Drug distribution in rat heart measured after 0.5 to 6 hrs; format: ADME, tissue-based; conditions: in vivo, time 0.5-6 hrs
[32] = in vivo; conditions: male, Sprague-Dawley, rat, po, 30 mg/kg
[33] = Half-life in Beagle dog at 5 mg/kg, po measured upto 24 hrs by LC-MS analysis; conditions: in vivo
[34] = in vivo; conditions: male, Sprague-Dawley, rat, po, 30 mg/kg; remark: listed apart in the source
[35] = tested on: MC-38; experiment: Synergistic antitumor activity against mouse MC38 cells implanted in C57BL/6J mouse assessed as tumor weight inhibition rate at 0.5 mg/kg, po bid measured after 4 weeks in presence of 5 mg/kg anti-PD1 and measured twice a week; format: functional; set-up: scale not given: the % may be the effect or the level left
[36] = target: T1, Protein cereblon/Mitogen-activated protein kinase kinase kinase kinase 1; experiment: PROTAC activity at CRBN/HPK1 in human Jurkat cells assessed as HPK1 degradation at 1 uM pretreated with MLN4924 for 4 hrs followed by compound addition and measured after 24 hrs by Western blotting analysis; format: cell-based
[37] = in vivo; conditions: beagle, dog, po, 5 mg/kg; remark: listed apart in the source
Description: Cmax in Beagle dog at 5 mg/kg, po measured upto 24 hrs by LC-MS analysis

[38] = in vivo; conditions: female, Sprague-Dawley, rat, po, 100 mg/kg
[39] = in vivo; conditions: male, Sprague-Dawley, rat, po, 100 mg/kg
[40] = Metabolic stability in monkey hepatocytes assessed as intrinsic clearance at 1 uM incubated for 90 mins by LC-MS/MS method; format: ADME, cell-based, Macaca mulatta, Hepatocyte; conditions: rhesus monkey, 1.5 h
[41] = Metabolic stability in dog hepatocytes assessed as intrinsic clearance at 1 uM incubated for 90 mins by LC-MS/MS method; format: ADME, cell-based, Canis lupus familiaris, Hepatocyte; conditions: 1.5 h
[42] = Drug metabolism in mouse hepatocytes assessed as phase 2 metabolites formation at 10 uM incubated for 120 mins by UHPLC-UV/MS/MS method; format: ADME, cell-based, Hepatocyte; conditions: 2 h

T1 sequence (Q92918 whole entry, looked up): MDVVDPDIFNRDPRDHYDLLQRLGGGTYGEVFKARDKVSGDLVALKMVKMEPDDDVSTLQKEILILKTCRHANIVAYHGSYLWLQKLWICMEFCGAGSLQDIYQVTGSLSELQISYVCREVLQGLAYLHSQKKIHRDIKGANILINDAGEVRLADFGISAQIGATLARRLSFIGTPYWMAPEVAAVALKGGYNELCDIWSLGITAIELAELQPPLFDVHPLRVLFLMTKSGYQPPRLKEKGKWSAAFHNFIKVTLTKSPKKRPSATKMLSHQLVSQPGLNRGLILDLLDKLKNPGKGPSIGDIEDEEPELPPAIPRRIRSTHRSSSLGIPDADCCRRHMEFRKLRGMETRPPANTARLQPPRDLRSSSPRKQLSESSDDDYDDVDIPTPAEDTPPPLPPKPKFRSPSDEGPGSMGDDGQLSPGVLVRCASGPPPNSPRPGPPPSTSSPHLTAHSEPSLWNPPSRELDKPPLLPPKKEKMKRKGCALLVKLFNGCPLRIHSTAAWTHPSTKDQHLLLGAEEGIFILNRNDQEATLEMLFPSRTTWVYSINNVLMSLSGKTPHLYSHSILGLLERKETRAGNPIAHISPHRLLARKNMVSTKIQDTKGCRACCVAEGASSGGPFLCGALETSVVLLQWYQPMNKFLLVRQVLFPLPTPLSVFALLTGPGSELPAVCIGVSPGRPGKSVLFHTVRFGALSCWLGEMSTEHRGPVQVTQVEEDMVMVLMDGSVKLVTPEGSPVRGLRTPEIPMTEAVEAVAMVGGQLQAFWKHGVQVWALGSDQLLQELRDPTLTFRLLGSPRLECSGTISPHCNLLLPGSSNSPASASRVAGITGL
T1 sequence (Q96SW2 whole entry, looked up): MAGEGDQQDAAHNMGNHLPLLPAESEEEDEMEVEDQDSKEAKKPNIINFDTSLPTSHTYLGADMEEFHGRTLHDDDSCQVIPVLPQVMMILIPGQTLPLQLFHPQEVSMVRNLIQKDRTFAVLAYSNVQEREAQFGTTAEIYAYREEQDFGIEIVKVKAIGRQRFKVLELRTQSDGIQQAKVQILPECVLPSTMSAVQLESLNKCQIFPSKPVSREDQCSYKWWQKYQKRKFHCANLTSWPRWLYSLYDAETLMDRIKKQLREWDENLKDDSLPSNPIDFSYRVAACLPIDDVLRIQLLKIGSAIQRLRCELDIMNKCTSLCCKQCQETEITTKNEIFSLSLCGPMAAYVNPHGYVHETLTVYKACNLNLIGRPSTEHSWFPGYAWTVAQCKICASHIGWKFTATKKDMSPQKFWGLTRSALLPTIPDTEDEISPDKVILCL
Sequence of Cytochrome P450 2D6 (P10635 whole entry): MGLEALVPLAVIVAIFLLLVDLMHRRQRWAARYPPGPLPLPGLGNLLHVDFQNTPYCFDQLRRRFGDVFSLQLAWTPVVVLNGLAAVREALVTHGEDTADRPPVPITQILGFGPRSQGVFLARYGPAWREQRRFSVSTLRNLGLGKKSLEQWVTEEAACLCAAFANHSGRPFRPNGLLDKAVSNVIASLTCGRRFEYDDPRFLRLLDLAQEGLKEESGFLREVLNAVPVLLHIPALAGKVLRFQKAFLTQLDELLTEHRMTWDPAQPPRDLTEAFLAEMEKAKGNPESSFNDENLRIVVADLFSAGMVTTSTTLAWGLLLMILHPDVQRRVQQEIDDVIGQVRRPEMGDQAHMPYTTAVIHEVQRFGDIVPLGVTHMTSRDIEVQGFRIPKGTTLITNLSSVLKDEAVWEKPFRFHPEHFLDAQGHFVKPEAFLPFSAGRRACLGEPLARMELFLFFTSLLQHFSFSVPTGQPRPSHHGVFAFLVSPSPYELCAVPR
Sequence of Cytochrome P450 3A4 (P08684 whole entry): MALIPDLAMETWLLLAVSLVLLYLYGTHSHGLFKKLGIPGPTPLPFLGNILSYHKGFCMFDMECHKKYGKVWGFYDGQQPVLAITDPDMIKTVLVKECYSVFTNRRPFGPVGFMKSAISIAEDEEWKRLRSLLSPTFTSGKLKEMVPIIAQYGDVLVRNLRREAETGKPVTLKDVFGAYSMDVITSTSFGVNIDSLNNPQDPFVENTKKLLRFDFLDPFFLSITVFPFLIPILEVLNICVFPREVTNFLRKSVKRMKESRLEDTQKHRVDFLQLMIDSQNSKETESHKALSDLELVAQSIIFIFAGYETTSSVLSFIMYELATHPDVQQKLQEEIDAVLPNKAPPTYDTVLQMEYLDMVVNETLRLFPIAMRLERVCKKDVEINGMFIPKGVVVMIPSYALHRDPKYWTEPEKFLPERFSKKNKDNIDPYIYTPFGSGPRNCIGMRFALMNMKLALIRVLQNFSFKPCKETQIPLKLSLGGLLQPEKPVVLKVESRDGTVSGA

## O=C1CCN(c2cc(C(=O)N3CCC(CC4CCN(c5ccc(-c6cnc7[nH]cc(-c8cnn(CC(F)(F)F)c8)c7n6)cn5)CC4)CC3)ccc2Cl)C(=O)N1
[1]
  IC50: > 10 µM
[2]
  Activity: 48.76%
[3]
  inhibition in vivo at 0.5 mg/kg: 51.4%
[4]
  IC50: > 10 µM
[5]
  Activity: 0.3 g
[6]
  Cmax at 24 h: 84 ng/mL
[7]
  Activity: inactive
[8]
  Tmax: 8 h
[9]
  Activity: 1.56 g
[10]
  Activity: inactive
[11]
  microsomal CLint at 1 µM: 38 µL/min/mg
[12]
  Activity: inactive
[13]
  Drug metabolism: metabolite_detected
[14]
  half-life at 24 h: 1.17 h
[15]
  Drug uptake: Active
[16]
  Activity: 12.77%
[17]
  bioavailability at 24 h: 16%
[18]
  AUC(0-t) at 24 h: 539 ng·h/mL
[19]
  Cmax at 24 h: 63.9 ng/mL
[20]
  Cmax at 336 h: 4210 ng/mL
[21]
  Drug metabolism: metabolite_detected
[22]
  AUC(0-inf): 12100 ng·h/mL
[23]
  inhibition in vivo at 0.1 mg/kg: 28.5%
[24]
  half-life at 0.75 h, 1 µM: 1.14 h
[25]
  Activity: Non-toxic
[26]
  Activity: Non-toxic
[27]
  AUC(0-inf): 5560 ng·h/mL
[28]
  C0 at 24 h: 3380 ng/mL
[29]
  Tmax: 6 h
[30]
  half-life at 1.5 h, 1 µM: 7.62 h
[31]
  Drug uptake: Active
[32]
  Cmax at 336 h: 3200 ng/mL
[33]
  half-life at 24 h: 4.23 h
[34]
  AUC at 336 h: 38200 ng·h/mL
[35]
  Activity: 86.54%
[36]
  Activity: inactive
[37]
  Cmax at 24 h: 111 ng/mL
[38]
  Cmax at 336 h: 8590 ng/mL
[39]
  AUC at 336 h: 151000 ng·h/mL
[40]
  CLH: 8.85 µL/min/mg
[41]
  CLH: 3.33 µL/min/mg
[42]
  Drug metabolism: metabolite_detected
